Test [1] addresses T1, hM3 (human Muscarinic receptor subtype 3) (Homo sapiens, UniProt P20309).
T1 construct: expressed in transfected cells; host or cells: CHO cells (Chinese hamster ovary cells, ATCC)
As to the kind of experiment: Human M3 calcium mobilization FLIPR assay. The test is classed as cell-based. The conditions noted are these: hM3 expressed in CHO cells, intracellular Ca2+ release, read-out: hM3 EC50. The protocol:
(§1) Human M1, rat M1, human M3 and human M5 Calcium Mobilization FLIPR™ Assay
(§2) The compound activity in the present invention (EC50 or IC50) is measured using a 384 plate-based imaging assay that monitors drug induced intracellular Ca^2+ release in whole cells. Activation of hM1 (human Muscarinic receptor subtype 1, gene bank access NM_000738), rM1 (rat Muscarinic receptor subtype 1, gene bank access NM_080773), hM3 (human Muscarinic receptor subtype 3, gene bank access NM_000740NM_000740) and hM5 (human Muscarinic receptor subtype 5, gene bank access NM_0121258), receptors expressed in CHO cells (Chinese hamster ovary cells, ATCC) is quantified in a Molecular Devices FLIPR II™ instrument as an increase in fluorescent signal. Inhibition of hM3 and hM5 by compounds is determined by the decrease in fluorescent signal in response to 2 nM acetylcholine activation.
(§3) Prior to experiment, the cell culture medium is removed from the plates by inversion. […] Plates are incubated at 37° C. for 60 minutes prior to start the experiment. The incubation is terminated by washing the cells four times in assay buffer, leaving a residual 25 μl buffer per well. Cell plates are then transferred to the FLIPR, ready for compound additions.
(§4) The day of experiment, acetylcholine and compounds are diluted in assay buffer in three-fold concentration range (10 points serial dilution) for addition by FLIPR instrument. For all calcium assays, a baseline reading is taken for 10 seconds followed by the addition of 12.5 μl of compounds, resulting in a total well volume of 37.5 μl. Data is collected every second for 60 pictures and then every 6 seconds for 20 pictures prior to the addition of agonist. For hM3 and hM5, before agonist addition, a second baseline reading is taken for 10 seconds followed by the addition of 12.5 μl of agonist or buffer, producing a final volume of 50 μl. After agonist stimulation, the FLIPR continues to collect data every second for 60 pictures and then every 6 seconds for 20 pictures. The fluorescence emission is read using filter 1 (emission 510-570 nm) by the FLIPR on board CCD camera.
(§5) Calcium mobilization output data are calculated as the maximal relative fluorescence unit (RFU) minus the minimal value for both compound and agonist reading frame (except for hM1 and rM1 using only the maximal RFU). Data are analyzed using sigmoidal fits of a non-linear curve-fitting program (XLfit version 4.2.2 Excel add-in version 4.2.2 build 18 math 1Q version 2.1.2 build 18). All pEC50 and plC50 values are reported as arithmetic means ±standard error of mean of ‘n’ independent experiments.
Background: Calcium assays in cells follow changes in intracellular calcium, usually with a dye or a luminescent sensor.

The target in test [2] is T2, hM5 (human Muscarinic receptor subtype 5) (Homo sapiens, UniProt P08912).
T2 construct: expressed in transfected cells; host or cells: CHO cells (Chinese hamster ovary cells, ATCC)
T2 sequence (P08912 1-532): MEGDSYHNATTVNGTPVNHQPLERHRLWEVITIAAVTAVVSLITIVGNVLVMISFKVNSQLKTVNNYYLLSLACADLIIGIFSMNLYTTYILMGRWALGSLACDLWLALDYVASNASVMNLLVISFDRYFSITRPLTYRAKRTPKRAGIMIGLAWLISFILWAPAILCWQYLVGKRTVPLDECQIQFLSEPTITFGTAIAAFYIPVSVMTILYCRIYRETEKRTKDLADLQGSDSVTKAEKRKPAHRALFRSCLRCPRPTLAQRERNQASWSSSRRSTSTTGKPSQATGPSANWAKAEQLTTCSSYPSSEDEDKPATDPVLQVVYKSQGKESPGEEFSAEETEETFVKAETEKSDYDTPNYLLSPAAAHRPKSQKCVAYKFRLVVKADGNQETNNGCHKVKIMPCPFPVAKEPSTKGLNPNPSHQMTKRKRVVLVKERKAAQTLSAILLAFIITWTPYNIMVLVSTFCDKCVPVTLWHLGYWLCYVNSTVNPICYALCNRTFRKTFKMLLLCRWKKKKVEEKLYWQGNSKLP
Briefly: Human M5 calcium mobilization FLIPR assay. The format is cell-based. To be noted: hM5 expressed in CHO cells, intracellular Ca2+ release, read-out: hM5 EC50. The protocol: as §1, §2, §3, §4, §5

T1 sequence (P20309 whole entry): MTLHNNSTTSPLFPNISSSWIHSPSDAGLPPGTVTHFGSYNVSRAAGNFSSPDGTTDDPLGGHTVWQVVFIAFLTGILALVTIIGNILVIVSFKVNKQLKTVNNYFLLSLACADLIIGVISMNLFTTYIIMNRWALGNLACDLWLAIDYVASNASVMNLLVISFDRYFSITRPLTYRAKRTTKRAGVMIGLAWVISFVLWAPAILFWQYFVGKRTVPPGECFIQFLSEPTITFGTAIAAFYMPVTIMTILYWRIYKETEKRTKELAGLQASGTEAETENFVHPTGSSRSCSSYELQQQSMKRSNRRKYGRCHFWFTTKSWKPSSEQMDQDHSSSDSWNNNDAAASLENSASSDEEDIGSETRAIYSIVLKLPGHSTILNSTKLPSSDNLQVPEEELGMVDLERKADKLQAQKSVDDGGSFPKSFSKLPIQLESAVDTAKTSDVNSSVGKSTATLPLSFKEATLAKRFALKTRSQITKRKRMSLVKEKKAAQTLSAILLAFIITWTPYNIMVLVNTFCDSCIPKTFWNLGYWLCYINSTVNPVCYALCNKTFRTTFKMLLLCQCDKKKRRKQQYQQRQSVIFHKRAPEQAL

For `CCOC(=O)N1CCC(C)(N2CCC(N3C(=O)Cc4cc(F)ccc43)CC2)C1` (single isomer, unassigned) [Example 79, ethyl 3-(4-(5-fluoro-2-oxoindolin-1-yl)piperidin-1-yl)-3-methylpyrrolidine-1-carboxylate], the EC50 in test [1] is > 40 µM; in test [2], 2.54 µM.
The like results for `CCOC(=O)N1CCC(C)(N2CCC(n3c(=O)[nH]c4cc(F)c(C)cc43)CC2)C1` (single isomer, unassigned) [Example 55, ethyl 3-(4-(5-fluoro-6-methyl-2-oxo-2,3-dihydro-1H-benzo[d]imidazol-1-yl)piperidin-1-yl)-3-methylpyrrolidine-1-carboxylate] were, in that order, > 40 µM and 1.82 µM.
The like results for `Cc1ccc2[nH]c(=O)n(C3CCN(C4(C)CCN(C(=O)OCCF)C4)CC3)c2c1` (single isomer, unassigned) [Example 28, 2-fluoroethyl 3-methyl-3-(4-(6-methyl-2-oxo-2,3-dihydro-1H-benzo[d]imidazol-1-yl)piperidin-1-yl)pyrrolidine-1-carboxylate] were, in that order, > 24.3 µM and 2.65 µM.
As for `CC1(N2CCC(n3c(=O)[nH]c4cc(F)c(F)cc43)CC2)CCN(C(=O)OCCF)C1` (single isomer, unassigned) [Example 61, 2-fluoroethyl 3-(4-(5,6-difluoro-2-oxo-2,3-dihydro-1H-benzo[d]imidazol-1-yl)piperidin-1-yl)-3-methylpyrrolidine-1-carboxylate], the EC50 was > 40 µM in test [1] and > 2.71 µM in test [2].
The like results for `COC(=O)N1CCC(C)(N2CCC(n3c(=O)[nH]c4ccc(F)cc43)CC2)C1` (single isomer, unassigned) [Example 52, methyl 3-(4-(6-fluoro-2-oxo-2,3-dihydro-1H-benzo[d]imidazol-1-yl)piperidin-1-yl)-3-methylpyrrolidine-1-carboxylate] were, in that order, > 40 µM and > 9.63 µM.
The like results for `C#CCOC(=O)N1CCC(C)(N2CCC(n3c(=O)[nH]c4ccc(C)cc43)CC2)C1` (single isomer, unassigned) [Example 41, prop-2-ynyl 3-methyl-3-(4-(6-methyl-2-oxo-2,3-dihydro-1H-benzo[d]imidazol-1-yl)piperidin-1-yl)pyrrolidine-1-carboxylate] were, in that order, > 40 µM and > 40 µM.
In the same order, the values of `COC(=O)N1CCC(C)(N2CCC(n3c(=O)[nH]c4cc(F)c(F)cc43)CC2)C1` (single isomer, unassigned) [Example 60, methyl 3-(4-(5,6-difluoro-2-oxo-2,3-dihydro-1H-benzo[d]imidazol-1-yl)piperidin-1-yl)-3-methylpyrrolidine-1-carboxylate] are > 40 µM and > 7.27 µM.
As to `CCOC(=O)N1CCC(C)(N2CCC(N3C(=O)Cc4ccc(F)cc43)CC2)C1` (single isomer, unassigned) [Example 74, ethyl 3-(4-(6-fluoro-2-oxoindolin-1-yl)piperidin-1-yl)-3-methylpyrrolidine-1-carboxylate], the EC50 in test [1] was > 40 µM; in test [2] it was > 21.2 µM.
For the molecule `Cc1ccc2c(c1)[nH]c(=O)n2C1CCN(C2(C)CCN(C(=O)OC(C)C)C2)CC1` (single isomer, unassigned) [Example 15, isopropyl 3-methyl-3-(4-(5-methyl-2-oxo-2,3-dihydro-1H-benzo[d]imidazol-1-yl)piperidin-1-yl)pyrrolidine-1-carboxylate], the EC50 in test [1] was > 40 µM.
Still for that read-out and setting: under `C#CCOC(=O)N1CCC(C)(N2CCC(n3c(=O)[nH]c4cc(F)ccc43)CC2)C1` (stereo not drawn) [Example 11, prop-2-ynyl 3-(4-(5-fluoro-2-oxo-2,3-dihydro-1H-benzo[d]imidazol-1-yl)piperidin-1-yl)-3-methylpyrrolidine-1-carboxylate] stands 1.13 µM.

One may read the EC50 as the concentration giving half of the maximal effect.
